# Data taken from patent US6342360B1 (priority 1988, dated 2002).
# Several values for one entry are separate records, joined by “and”; a condition that tells them apart may be missing. Equal entries are not always repeated. Entries after “also recorded” stand apart in the source; their conditions may differ. Where two headings read alike, the source gives them in different places.
# Legend:
# dopamine-D2 receptor [1] = target: T1, dopamine-D2 receptor (Rattus norvegicus, UniProt P61169); test: Adenylate cyclase activity in membranes from GH4ZR7 cells; assay type: biochemical; design: Full-length dopamine-D2 cDNA (17) was excised from λGT10 with Sal I; expressed in transfected cells; conditions: for efficacy: forskolin-stimulated adenylate cyclase
# Procedure: Adenylate Cyclase Assay: The conversion of α^32P-ATP to ^32P-cAMP was determined essentially as described by Salomon et al. (24). […] Assays carried out in triplicate were initiated by warming to 25° C. and terminated by cooling to 0° C. Trichloroacetic acid (100 μl of 30% solution) was added to each assay, and ^3H-cAMP (30,000 cpm) was added to each tube as an internal standard. The assay volume was increased to 1 ml by addition of water, and tubes were centrifuged (2000 g×10 min). cAMP in the supernatant was isolated by sequential chromatography on columns containing Dowex AG50W-X4 resin and neutral alumina. The 2-ml eluate from each alumina columntwas dissolved in 10 ml of Bio-Safe II (RPI, Mount Prospect, Ill.) for liquid scintillation counting. Calculations: Data from cAMP and PRL assays are expressed as means±standard error for triplicate determinations. Curve-fitting parameters were obtained by nonlinear regression analysis using the Enzfitter program (Elsevier Biosoft). Average affinity, EC50 and IC50 values are geometric means of the indicated number of experiments. In competition experiments, KI values were calculated from experimentally determined IC50 values by the method of Cheng and Prusoff (25).
# dopamine-D2 receptor [2] = target: T1, dopamine-D2 receptor; test: cAMP accumulation in GH4ZR7 cells
# Procedure: (§1) cAMP and PRL Assay: Cells were plated in 6-well, 35 mm dishes, 3-7 days prior to experimentation. Cells were pre-incubated in 2 ml/well warm F10+0.1% (−)-ascorbic acid+20 mM Tris (pH 7.2) (FAT) for 5-10 min, followed by addition of 1 ml/well of FAT+100 μm IBMX+experimental compounds, and incubated for 30 min. at 37° C. Experimental compounds were diluted 200- to 1000-fold from stock solutions made immediately prior to assay. […] Media were collected, and the cells were lysed immediately in 1 ml of boiling water. Cell lysates and media were centrifuged (2000×g, 10 min., 4° C.), and the supernatants collected for assay as cell extracts. Cell extracts and media samples were frozen at −20° C. until assay, if not assayed immediately. cAMP was assayed by a specific radioimmunoassay as described (22), with antibody used at 1:500 dilution. After 16 h incubation at 4° C., 20 μl of 10% BSA and 1 ml of 95% ethanol were added consecutively to precipitate the antibody-antigen complex. […] PRL was assayed in the media samples obtained as described above, except that IBMX was omitted during the 30 min incubation in FAT medium. PRL levels were determined by specific radioimmunoassay using Staphyloccus A lysate (IgSorb, The Enzyme Center, Malden, Mass.) to precipitate antigen-antibody complexes (23).
# [3] = target: T2, rat dopamine D-2 receptor (Rattus norvegicus, UniProt P61169)
# Procedure: Receptor binding assay: The membrane preparation was thawed, centrifuged at 24,000×g for 20 min., and resuspended in Tris-isosaline except where indicated. […] Assays were carried out in duplicate in a volume of 2 ml for saturation analyses or 1 ml for inhibition analyses. Incubations were initiated by the addition of 15-50 μg of protein, carried out at 37° for 50 min., and stopped by the addition of 10 ml of ice-cold wash buffer (10 mM Tris, pH 7.4, and 0.9% NaCl) to each assay. The samples were filtered through glass-fibre filters (Schleicher & Schuell No. 30) and washed with an additional 10 ml of wash buffer. […] Data were analyzed by nonlinear regression using the data analysis program Enzfitter (Elsevier-Biosoft). […] Averages for KI and KD values are the geometric means. In experiments designed to assess the effect of GTP and NaCl on the binding of DA, fresh tissue was used. Cells were harvested, centrifuged, and Mg^2+ resuspended in Tris-Mg^2+ (50 mM Tris, pH 7.4, and 4 mM MgCl2). Tissue was incubated for 15 min. at 37° in this buffer before re-centrifugation.
# [4] = target: T2, rat dopamine D-2 receptor; conditions: for blockade of inhibition of adenylate cyclase by 10 μM DA: 10 μM (+)-butaclamol in assay, pertussis toxin 50 ng/ml 16 hours on cells
# Procedure: Adenylate cyclase assay: The conversion of [α^32P]ATP to [^32P]cAMP was determined essentially as described by Salomon et al. (14). […] Assays were initiated by warming to 25° and terminated after 20 minutes by cooling to 0°, then adding trichloroacetic acid (100 μl of a 30% solution) to each assay. [^3H]Cyclic AMP (approximately 30,000 cpm) was added to each assay as an internal standard. The assay volume was brought up to 1 ml with water, and tubes were centrifuged for 10 min. at 2000×g. Cyclic AMP in the supernatant was isolated by sequential chromatography on columns containing Dowex AG50W-X4 resin and neutral alumina. The 2-ml eluate from each column of alumina was dissolved in 10 ml of Bio-Safe II (RPI, Mount Prospect, Ill.) for liquid scintillation counting. Dose-response curves for inhibition of adenylate cyclase activity by agonists were analyzed by nonlinear regression using the program Enzfitter. The data were fit to the equation:
# where E is the amount of enzyme activity, expressed as percentage of total stimulated activity, A is the concentration of agonists, EC50 is the concentration of agonist causing half-maximal inhibition of enzyme activity, Emax is the enzyme activity observed in the presence of maximally inhibiting concentrations of agonist, expressed as the percentage of total stimulated activity, and N is a slope factor. Averages of EC50 values are the geometric means.
# rat D2 dopamine receptor = rat D2 dopamine receptor (Rattus norvegicus, UniProt P61169)
# Procedure: (§2) The homogenizing solution was centrifuged at 800×g for 10 min. and the pellet was subjected to a second homogenization and centrifugation as before. The supernatants were pooled and centrifuged at 200,000×g for 1 hour. […] In some experiments 100 uM guanosine 5′-triphosphate was included. […] Incubations were initiated by the addition of 15-40 μg of protein, carried out at 37° C. for 50 minutes, and stopped by the addition of 10 ml of ice-cold wash buffer (10 mM Tris, pH=7.4, and 0.9% NaCl) to each assay. The samples were filtered through glass-fiber filters (Schleicher and Schuell No. 30) and washed with an additional 10 ml of wash buffer. The radioactivity retained on the filter was counted using a Beckman LS 1701 scintillation counter. Data were analyzed as previously described (29) except that curves were drawn using the data analysis program Enzfitter. The resulting IC50 values were converted to Ki values by the method of Cheng and Prusoff (30).
# [5] = target: human dopamine D2 receptor (Homo sapiens, UniProt P14416); test: [3H]-domperidone binding to L-hPitD2Zem membranes
# Procedure: The 2.5-kb human pituitary cDNA (hPitD2) was cloned into pZem3 (a gift from Dr. E. Mulvihill, Zymogenetics) and co-transfected with the pRSVneo gene into mouse Ltk^− cells by CaPo4 precipitation (10). A stable transfectant (L-hPitD2Zem) was selected and maintained in 750 μg/ml of G418 (Geneticin sulphate, Gibco). Twenty hours prior to the harvesting of membranes, these cells were incubated with 70 μM zinc sulphate. […] For the binding assays, membrane protein was used at 10-15 μg from L-hPitD2Zem, 50-75 μg from L-RGB2Zem-1, and 220-250 μg from rat striatum. […] The filters were washed twice in ice cold 50 mM Tris-HCl, pH 7.4. […] The Bmax, Kd, and IC50 values were determined as previously described (14).
# [6] = test system: D2 dopamine receptors in rat striatal membranes; test: 3H-spiperone binding to rat striatal membranes; conditions: at the concentrations used
# Procedure: as §2
# dopamine-D2 receptor [7] = target: T1, dopamine-D2 receptor; test: Acute PRL release in GH4ZR7 cells; assay type: cell-based; design: Full-length dopamine-D2 cDNA (17) was excised from λGT10 with Sal I; expressed in transfected cells; conditions: 30 min
# Procedure: as §1
# Procedure for GH4C1 cells: as §1
# T2 sequence (P61169 1-415 isoform P61169-2): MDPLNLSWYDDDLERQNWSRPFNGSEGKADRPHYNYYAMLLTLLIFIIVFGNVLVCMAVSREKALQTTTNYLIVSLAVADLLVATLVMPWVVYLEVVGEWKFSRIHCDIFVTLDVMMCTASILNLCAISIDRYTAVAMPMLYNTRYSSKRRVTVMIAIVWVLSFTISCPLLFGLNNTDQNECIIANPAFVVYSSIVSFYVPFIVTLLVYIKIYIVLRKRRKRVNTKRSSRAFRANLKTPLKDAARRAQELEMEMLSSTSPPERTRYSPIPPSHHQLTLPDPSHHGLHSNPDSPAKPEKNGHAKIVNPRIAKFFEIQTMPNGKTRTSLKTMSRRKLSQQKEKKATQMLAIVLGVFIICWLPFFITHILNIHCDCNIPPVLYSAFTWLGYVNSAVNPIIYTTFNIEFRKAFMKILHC
# T1 sequence (P61169 1-415 isoform P61169-2): as above
# rat D2 dopamine receptor, sequence (P61169 1-415 isoform P61169-2): as above
# human dopamine D2 receptor, sequence (P14416 whole entry): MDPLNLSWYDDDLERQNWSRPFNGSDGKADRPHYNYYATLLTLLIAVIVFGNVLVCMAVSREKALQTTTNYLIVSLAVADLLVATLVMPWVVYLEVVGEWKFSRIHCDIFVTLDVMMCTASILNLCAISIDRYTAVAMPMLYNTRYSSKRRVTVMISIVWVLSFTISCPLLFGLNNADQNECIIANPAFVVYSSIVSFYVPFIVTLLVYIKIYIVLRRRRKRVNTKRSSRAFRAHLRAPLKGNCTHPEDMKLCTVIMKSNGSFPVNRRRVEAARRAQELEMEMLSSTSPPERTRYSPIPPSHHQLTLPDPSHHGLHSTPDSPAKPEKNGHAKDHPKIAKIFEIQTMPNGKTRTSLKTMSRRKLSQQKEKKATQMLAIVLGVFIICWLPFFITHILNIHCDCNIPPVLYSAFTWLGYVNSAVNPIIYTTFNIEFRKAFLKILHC
compound,measurement,setting,value
"CCCN1CCCC(c2cccc(O)c2)C1 (single isomer, unassigned; (+)) [(+)3-PPP, 3-(3-hydroxyphenyl)-N-n-propylpiperidine]",efficacy,dopamine-D2 receptor [1],as efficacious as dopamine
"CCN1CCCC1CNC(=O)c1cc(S(N)(=O)=O)ccc1OC (single isomer, unassigned; (+)) [(+)-sulpiride]",blockade of dopamine inhibition of cAMP accumulation,dopamine-D2 receptor [2],did not block; also recorded: little or no effect
"CCCN1CCCC(c2cccc(O)c2)C1 (single isomer, unassigned; (-)) [(−)3-PPP, 3-(3-hydroxyphenyl)-N-n-propylpiperidine]",Hill coefficient,[3]; single experiment FIG. 9A,0.89
same,efficacy,dopamine-D2 receptor [1],did not consistently reduce
CCN1CCC[C@H]1CNC(=O)c1cc(S(N)(=O)=O)ccc1OC [(−)-sulpiride],blockade of dopamine inhibition of cAMP accumulation,dopamine-D2 receptor [2],blocked dopamine action
same,effect of antagonist alone on basal cAMP,dopamine-D2 receptor [2]; absence of dopamine,did not alter basal cAMP levels
CC(C)C[C@H]1C(=O)N2CCC[C@H]2[C@]2(O)O[C@](NC(=O)[C@@H]3C=C4c5cccc6[nH]c(Br)c(c56)C[C@H]4N(C)C3)(C(C)C)C(=O)N12 [bromocriptine],Ki,"[3]; [3H]spiroperidol 0.2 nM, GTP and NaCl present, geometric mean of 2 experiments",2.4 nM
same,rank among the six compounds tested,"[3]; inhibition of radioligand binding, LZR1",most potent
same,Ki,"[3]; read-out: KI for inhibition of [3H]spiroperidol binding, single experiment FIG. 9A, radioligand 230 pM",5 nM
same,Ki,"[3]; read-out: mean KI, 0.1 mM GTP and 120 mM NaCl, LZR1 membranes",2 nM
same,Hill coefficient,[3]; single experiment FIG. 9A,1.05
same,EC50,[4],45 nM and 40 nM
same,Max (maximal inhibition of adenylate cyclase activity),[4],17 ± 1%
same,agonist activity / efficacy,[4],less efficacious than DA
same,inhibition of forskolin-stimulated adenylate cyclase activity,dopamine-D2 receptor [1],23%
same,maximal inhibition,dopamine-D2 receptor [1],23%
same,EC50,dopamine-D2 receptor [1]; read-out: EC50,6 nM
same,EC50,"dopamine-D2 receptor [1]; read-out: EC50, inhibition of adenylate cyclase",5 nM
NCCc1ccc(O)c(O)c1 [dopamine],"effect on basal, VIP-stimulated or TRH-stimulated PRL secretion","GH4C1 cells; GH4C1 cells, data not shown",no effect
same,effect on extracellular cAMP levels,"GH4C1 cells; wild-type GH4C1 cells, VIP omitted or present",no effect
O=C(c1ccc(F)cc1)C1CCN(CCn2c(=O)[nH]c3ccccc3c2=O)CC1 [ketanserin],potency at inhibiting 3H-spiperone binding,rat D2 dopamine receptor; L-RGB2Zem-1 membranes,much less potent
CN1CCN2c3ccccc3Cc3ccccc3C2C1 (centres unmarked) [mianserin],inhibition of domperidone binding,[5]; [3H]-domperidone 1 nM,only at very high concentrations
O=C(CCCN1CCC2(CC1)C(=O)NCN2c1ccccc1)c1ccc(F)cc1 [spiperone],blockade of dopamine inhibition of cAMP accumulation,dopamine-D2 receptor [2],blocked dopamine action
same,effect of antagonist alone on basal cAMP,dopamine-D2 receptor [2],did not alter basal cAMP levels
CCN1CCCC1CNC(=O)c1cc(S(N)(=O)=O)ccc1OC (centres unmarked) [sulpiride],share of (+)-butaclamol-displaceable binding not inhibited,[6],10-15%
(+)-butaclamol,potency at inhibiting 3H-spiperone binding,rat D2 dopamine receptor,most potent inhibitors
same,blockade of inhibition of adenylate cyclase by 10 μM DA,[4],prevented
(−)-butaclamol,inhibition of domperidone binding,[5],only at very high concentrations
VIP: vasoactive intestinal peptide,VIP-induced enhancement of cAMP levels,dopamine-D2 receptor [2],8-12 times basal levels
same,enhancement of PRL secretion,dopamine-D2 receptor [7],1.5 fold
same,total adenylate cyclase activity stimulated,"dopamine-D2 receptor [1]; 200 nM VIP, n=3",22±7 pmol/mg protein/min
pertussis toxin,blockade of inhibition of adenylate cyclase by 10 μM DA,[4],blocked
same,forskolin-stimulated adenylate cyclase activity versus control membranes,[4]; membranes from pertussis toxin-treated cells,approximately 2.5 fold
same,effect of pretreatment on inhibition of basal and VIP-stimulated cAMP by dopamine,"dopamine-D2 receptor [2]; pertussis toxin 50 ng/ml, 16 h",abolished
same,effect of pretreatment on dopamine inhibition of forskolin-stimulated adenylate cyclase,dopamine-D2 receptor [1]; pertussis toxin 16 h,uncoupled
